Experimental data reported in patent US20230083012A1, “DIHYDROPYRIMIDINE DERIVATIVES AND USES THEREOF IN THE TREATMENT OF HBV INFECTION OR OF HBV-INDUCED DISEASES” (priority 2019, published 2023).

Assays:
[1] = system: HBV; test: Anti-HBV activity in HepG2.2.15 cells (HBV DNA in culture medium by qPCR); type: cell-based; conditions: Hepatitis B virus, HepG2.2.15, 144 h, HepG2.2.15 cells, 6 days treatment, HBV DNA in culture medium quantified by real-time PCR; read-out: EC50
How it was run: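 HepG2.2.15 cells in 2% FBS medium at 37 °C were treated with compounds for 6 days, with medium and compound refreshed at day 3; 1:3 dilutions, 8 concentrations in triplicate, top 10 or 1 uM. HBV DNA in culture medium quantified by qPCR to derive EC50; CC50 from parallel plates (top 100 uM).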

[2] = Cytotoxicity determination in HepG2.2.15 cells (CCK-8 cell viability); type: cell-based; conditions: human, 6 days treatment, CCK-8 assay, highest concentration 100 uM
How it was run: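 HepG2.2.15 cells seeded at 5,000 cells/well in 2% FBS medium, exposed 6 days to compounds (8-point 1:3 dilutions from 100 uM, triplicate), refreshed at day 3. Viability read by CCK-8 after 2.5 h at 37° C, absorbance 450 nm with 630 nm reference; CC50 calculated.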

| SMILES | EC50 [1] | CC50 at 6 days [2] |
| --- | --- | --- |
| CCOC(=O)C1=C(CN2CC[C@]3(F)C(=O)N(CC(C)(C)C(=O)O)C[C@H]23)NC(c2nccs2)=N[C@H]1c1cccc(F)c1C (relative stereo) [Compound 3B, 3-(1-(((S)-5-(ethoxycarbonyl)-6-(3-fluoro-2-methylphenyl)-2-(thiazol-2-yl)-3,6-dihydropyrimidin-4-yl)methyl)-3a-fluoro-4-oxohexahydropyrrolo[3,4-b]pyrrol-5(1H)-yl)-2,2-dimethylpropanoic acid] | 38.7 nM | 51.8 µM |
| CCOC(=O)C1=C(CN2CC(F)(F)[C@H]3[C@@H]2CCN3[C@H](C)CC(C)(C)C(=O)O)NC(c2nccs2)=N[C@H]1c1cccc(F)c1C (single isomer, unassigned) [Compound 105A] | 10.5 nM | 15.2 µM |
| CCOC(=O)C1=C(CN2CC(F)(F)[C@@H]3C(=O)N(CC4(C(=O)O)CC4)C[C@@H]32)NC(c2nccs2)=N[C@H]1c1cccc(F)c1C (single isomer, unassigned) [Compound 184] | 6.7 nM | 48.3 µM |
| CCOC(=O)C1=C(CN2CC(F)(F)C3C2CN(C(C)=O)N3CCC(C)(C)C(=O)O)NC(c2nccs2)=N[C@H]1c1cccc(F)c1C (stereo partly drawn) [Compound 70, 4-(2-acetyl-4-(((S)-5-(ethoxycarbonyl)-6-(3-fluoro-2-methylphenyl)-2-(thiazol-2-yl)-3,6-dihydropyrimidin-4-yl)methyl)-6,6-difluorohexahydropyrrolo[3,2-c]pyrazol-1(2H)-yl)-2,2-dimethylbutanoic acid] | 8.1 nM | 27.1 µM |
| CCOC(=O)C1=C(CN2CC(F)(F)[C@H]3[C@@H]2CCN3S(C)(=O)=O)NC(c2nccs2)=N[C@H]1c1cccc(F)c1C (single isomer, unassigned) [Compound 62] | 12.7 nM | 17.3 µM |
| COC(=O)C1=C(CN2CC(F)(F)[C@@H]3[C@H]2CN(C)N3CCC(C)(C)C(=O)O)NC(c2nccs2)=N[C@H]1c1ccc(F)c(F)c1Cl (single isomer, unassigned) [Compound 95, 4-((cis)-4-((6-(2-Chloro-3,4-difluorophenyl)-5-(methoxycarbonyl)-2-(thiazol-2-yl)-3,6-dihydropyrimidin-4-yl)methyl)-6,6-difluoro-2-methylhexahydropyrrolo[3,2-c]pyrazol-1(2H)-yl)-2,2-dimethylbutanoic acid] | 24 nM | 8.2 µM |
| CCOC(=O)C1=C(CN2CC(F)(F)[C@H]3[C@@H]2CCN3c2nc(C(=O)O)cs2)NC(c2nccs2)=N[C@H]1c1cccc(F)c1C (single isomer, unassigned) [Compound 124] | 24.2 nM | 7.7 µM |
| COC(=O)C1=C(CN2CC[C@]3(F)C(=O)N(CC(C)(C)C(=O)O)C[C@H]23)NC(c2nccs2)=N[C@H]1c1ccc(F)c(F)c1Cl (single isomer, unassigned) [Compound 209A, 3-((cis)-1-((6-(2-chloro-3,4-difluorophenyl)-5-(methoxycarbonyl)-2-(thiazol-2-yl)-3,6-dihydropyrimidin-4-yl)methyl)-3a-fluoro-4-oxohexahydropyrrolo[3,4-b]pyrrol-5(1H)-yl)-2,2-dimethylpropanoic acid] | 19.1 nM | 23.3 µM |
| CCOC(=O)C1=C(CN2CC(F)(F)C3C2CCN3NCC(C)(C)C(=O)O)NC(c2nccs2)=N[C@H]1c1cccc(F)c1C (stereo partly shown) [Compound 27] | 42 nM | 13.9 µM |
| CCOC(=O)C1=C(CN2CC(F)(F)[C@H]3[C@@H]2CCN3CCC(C)(C)C(=O)O)NC(c2nc(C)cs2)=N[C@H]1c1cccc(F)c1C (single isomer, unassigned) [Compound 118] | 5.4 nM | 12.7 µM |
| CCOC(=O)C1=C(CN2CC(F)(F)[C@H]3[C@@H]2CCN3CCC(C)(C)c2nnn[nH]2)NC(c2nccs2)=N[C@H]1c1cccc(F)c1C (single isomer, unassigned) [Compound 108] | 0.4 nM | 13.1 µM |
| CCOC(=O)C1=C(CN2CC(F)(F)[C@H]3[C@@H]2CCN3C[C@@H](C)C(=O)O)NC(c2nccs2)=N[C@H]1c1cccc(F)c1Cl (single isomer, unassigned) [Compound 149A] | < 0.5 nM | 21.8 µM |
| CCOC(=O)C1=C(CN2CC(F)(F)[C@@H]3[C@H]2CON3CCC(C)(C)C(=O)O)NC(c2nccs2)=N[C@H]1c1ccc(F)c(F)c1F (single isomer, unassigned) [Compound 175, 4-((cis)-4-((5-(Ethoxycarbonyl)-2-(thiazol-2-yl)-6-(2,3,4-trifluorophenyl)-3,6-dihydropyrimidin-4-yl)methyl)-6,6-difluorohexahydro-1H-pyrrolo[3,2-c]isoxazol-1-yl)-2,2-dimethylbutanoic acid] | 8 nM | > 50 µM |
| CCOC(=O)C1=C(CN2CC(F)(F)[C@H]3CN([C@H]4C[C@H](C(=O)O)C4)C[C@H]32)NC(c2nccs2)=N[C@H]1c1cccc(F)c1C (single isomer, unassigned) [Compound 18A] | 61.1 nM | 66.3 µM |
| CCOC(=O)C1=C(CN2CC(F)(F)[C@H]3[C@@H]2CCN3CC[C@H]2C[C@@H]2C(=O)O)NC(c2nccs2)=N[C@H]1c1cccc(F)c1C (relative stereo) [Compound 110, (trans)-2-(2-((cis)-4-(((S)-5-(ethoxycarbonyl)-6-(3-fluoro-2-methylphenyl)-2-(thiazol-2-yl)-3,6-dihydropyrimidin-4-yl)methyl)-6,6-difluorohexahydropyrrolo[3,2-b]pyrrol-1(2H)-yl)ethyl)cyclopropane-1-carboxylic acid] | 0.6 nM | 23.5 µM |
| COC(=O)C1=C(CN2CC(F)(F)[C@H]3[C@@H]2CCN3CCC(C)(C)C(=O)O)NC(c2ncoc2C)=N[C@H]1c1ccc(F)cc1Cl (single isomer, unassigned) [Compound 125, 4-((cis)-4-((6-(2-chloro-4-fluorophenyl)-5-(methoxycarbonyl)-2-(5-methyloxazol-4-yl)-3,6-dihydropyrimidin-4-yl)methyl)-6,6-difluorohexahydropyrrolo[3,2-b]pyrrol-1(2H)-yl)-2,2-dimethylbutanoic acid] | 9.3 nM | 58.4 µM |
| CCOC(=O)C1=C(CN2CC(F)(F)[C@H]3[C@@H]2CCN3CCC(C)(C)C(=O)O)NC(c2nccs2)=N[C@H]1c1cccc(F)c1F (single isomer, unassigned) [Compound 142] | 8 nM | > 25 µM |
| COC(=O)C1=C(CN2CC(F)(F)[C@H]3[C@@H]2CCN3C[C@@H](C)C(=O)O)NC(c2nccs2)=N[C@H]1c1ccc(F)c(F)c1Cl (single isomer, unassigned) [Compound 134A, 3-((cis)-4-((6-(2-chloro-3,4-difluorophenyl)-5-(methoxycarbonyl)-2-(thiazol-2-yl)-3,6-dihydropyrimidin-4-yl)methyl)-6,6-difluorohexahydropyrrolo[3,2-b]pyrrol-1(2H)-yl)-2-methylpropanoic acid] | < 0.5 nM | 26.9 µM |
| CCOC(=O)C1=C(CN2CC(F)(F)[C@@H]3[C@H]2CON3CC(C)(C)C(=O)O)NC(c2nccs2)=N[C@H]1c1cccc(F)c1C (single isomer, unassigned) [Compound 176] | 3 nM | 24.8 µM |
| CCOC(=O)C1=C(CN2CC(F)(F)[C@H]3[C@@H]2CCN3[C@@H](C)CC(C)(C)C(=O)O)NC(c2nccs2)=N[C@H]1c1cccc(F)c1C (single isomer, unassigned) [Compound 105B] | 108 nM | 94.3 µM |
